Results taken from patent US20100279413A1, “APPLICATIONS OF UBIQUINONES AND UBIQUINOLS” (ZYMES, LLC, priority 2008, published 2010).

Key:
[1] = system: cultured fetal rat DRGs; test: CoQ10 / HQO dose response: neurite growth and survival of cultured fetal rat DRGs; type: cell-based; conditions: for mean neurite length: day 16, controls 4.84 mm, p<0.0001
Method: In fact, by day 11, the length of neurites around DRGs was longer if the DRGs were cultured with CoQ10 (concentrations ranged from 0.1-50 uM) compared with control DRGs, p<0.0001 for all. FIG. 1A, 1B, 1C.
The aim of the second experiment was to confirm that exposure to 50 uM CoQ10 is not toxic to cultured fetal rat DRGs and also to see if even higher concentrations may be used safely. Eight DRGs (2 plates of 4 DRGs each) were cultured under each of the following conditions: • Control • 50 uM CoQ10 • 75 uM CoQ10 • 100 uM CoQ10
This experiment was carried on for 22 days, which is about as long as DRGs can be sustained in this model, even under control conditions. The experiment was continued for this time period to confirm that CoQ10 remains non-toxic in this model over time.
Neurite lengths around each DRG were measured at four representative points (giving a total of 32 measures at each exposure concentration at each time point) on days 1, 2, 5, 8, 12, 16 and 22.
A third experiment measured growth of DRG's with varying doses of HQO™, 0.1, 10, 100 uM CoQ10. This experiment was done in DRG's isolated from a new rat, which accounts for the difference in neurite length compared to experiments 1 and 2. […] (FIG. 1E)

[2] = system: cultured fetal rat dorsal root ganglia (DRGs); test: In vitro model of ATN: NRTI (d4T/ddI) neurotoxicity in cultured fetal rat DRGs; type: cell-based
Method: Objective: To examine the safety and preventative efficacy of HQO™ using cultured fetal rat dorsal root ganglia (DRGs) as an in vitro model of ATN.
In a separate experiment, DRGs were exposed to a higher dose (50 μM) of d4T alone or with 10 or 100 nM HQO™.

COC1=C(OC)C(=O)C(C/C=C(\C)CC/C=C(\C)CC/C=C(\C)CC/C=C(\C)CC/C=C(\C)CC/C=C(\C)CC/C=C(\C)CC/C=C(\C)CC/C=C(\C)CCC=C(C)C)=C(C)C1=O [CoQ10, coenzyme Q10]
length of neurites around DRGs compared with control DRGs ([1]; day 11, 0.1-50 uM, p<0.0001 for all): longer
mean neurite length ([1]; 75 uM (non-viable DRG excluded)): 6.20 mm
mean neurite length ([1]; 100 uM): 6.07 mm
toxicity in cultured fetal rat DRGs ([1]; first dose finding experiment, concentrations up to 50 uM): no evidence of toxicity
toxicity in cultured fetal rat DRGs ([1]; second experiment, 50, 75, 100 uM, up to 22 days): no evidence of toxicity

CC(=O)O[C@H](CC(=O)[O-])C[N+](C)(C)C [LAC, L-acetyl carnitine]
NRTI (ddI)-induced neurotoxicity of fetal rat DRGs ([2]; heading of Example 3, no data given): Prevents

Cc1cn([C@H]2C=C[C@@H](CO)O2)c(=O)[nH]c1=O [d4T, stavudine]
toxicity in DRGs (NRTI alone) ([2]; 50 μM d4T alone, by day 8): evident
